How the values were obtained:
[1] = both, human
Method: The skin was donated by male and female patients aged 28 to 63 years old undergoing abdominal plastic surgery at the Department for Plastic, Aesthetic, and Reconstructive Surgery of the Medical University Graz. […] The human skin explants were cleaned with gauze swabs and purified water and were subsequently stored frozen at −20° C.
The skin explants were thawed at room temperature for 12 h before the start of the study. They were fixed on a plate of extruded polystyrene wrapped in a medical underpad (MoliNea N, Paul Hartmann AG, Austria) and placed into a climate chamber (32° C./40-60% relative humidity) for 1 h before use. Ambient temperature and ambient relative humidity within the climate chamber were controlled throughout the experiment with a data logger with integrated temperature sensor and relative humidity sensor (175 H1 temperature and humidity data logger, Testo, Germany).
Cannulas (Sterican 20G, B.Braun, Germany) were inserted into the dermis and the subcutis of the skin explant. OFM probes (OFM-P0X-15, JR-HEALTH, Austria) were pushed through the cannulas. Afterwards, the cannulas were removed and the probes were fixed to the skin with cyanoacrylate (Cyanolit 241F, Panacol-Elosol GmbH, Germany). […]

protein = settings: cited from earlier work
[2] = Non-specific adsorption of diclofenac on the OFM probes and tubing; settings: for the duration of the experiment (6 h); data not shown
Method: Two test solutions of diclofenac diethyl amine salt (DDEA) and diclofenac sodium salt (DNa) were tested. […] Samples were collected in 1 h intervals. Syringes and Eppendorf® vials were used to deliver test solution to the OFM outlet sections and tubing, respectively. Samples from the syringes and from the Eppendorf® vials were taken at the start (t=0 h) and at the end (t=6 h) of the experiment to determine the concentration entering the OFM probe and tubing. Syringes, dosing needles, Eppendorf® vials, and pipette tips were coated with each test solution prior to use. For coating, the samples were filled with test solutions and maintained at room temperature for 30 min. Afterwards, the coating test solutions were discarded. Pipette tips underwent three cycles of filling and emptying of test solutions. The fourth filling of the pipette tip was used as the sample. Adsorption was assessed by comparing inflow to outflow concentrations. […] LLOQ was 10 ng mL^-1.

O=C(O)Cc1ccccc1Nc1c(Cl)cccc1Cl [DNa, diclofenac sodium]
concentration in recirculation probes higher than in control probes by ([1]; 28 h): 9 ng/mL

O=C(O)Cc1ccccc1Nc1c(Cl)cccc1Cl [Diclofenac, diclofenac]
dilution factor [1]: 13.9 fold
protein binding (protein): > 99.8%

O=C(O)Cc1ccccc1Nc1c(Cl)cccc1Cl [DDEA, diclofenac diethylammonium]
stability in the stock solution [2]: stable

Source: patent publication US20250198992A1, “IN VITRO METHODS” (HALEON CH SARL, priority 2022, published 2025)
